Experiment [1] relates to mesenteric artery of a rabbit. As to the kind of experiment: Relaxation of Mesenteric Artery (KCl-contracted spiral strip). Also noted: species or system rabbit of Japanese local variety. The following applies: Oryctolagus cuniculus; concentration of the hydrochloride attaining 50% of complete relaxation; rabbit mesenteric artery contracted with KCl; read-out: ED50 (the source's name). The protocol: A rabbit of Japanese local variety weighing about 3 kg was subjected to blood-letting to death. Then, abdomen of the rabbit was dissected to pick up a mesenteric artery. […] Thus, the shrinkage and relaxation of the artery was ready to be measured as a load on the transducer. To the organ bath, KCl was added in an amount which makes the artery shrink at a half length that in 15 to 20 mM aqueous solution. Then, hydrochlorides of the compounds of the present invention were added to the organ bath to observe relaxation effect on the artery.
Effect of the compounds of the present invention on relaxation of mesenteric artery was examined according to the method as mentioned hereinbefore.

For experiment [2], the system named is male spontaneously hypertensive rats (SHR). As to the kind of experiment: Reduction of Blood Pressure (systolic, tail plethysmographic method, oral). The format is in vivo, rat (SHR, Wister Kyoto). The method, then:
Male spontaneously hypertensive rats (SHR, Wister Kyoto) weighing 300 to 350 g were used. Systolic blood pressure was measured indirectly by the tail plethysmographic method in conscious SHR, just prior to, and 1, 2, 4 and 6 hours after oral administration of test drugs. Test drugs, dissolved in deionized water, were administered orally in a volume of 10 ml-solution/kg-rat. Reduction in systolic blood pressure (ΔP, mmHg) was calculated by substracting a systolic blood pressure after administration from that just prior to administration.
Effect of the compounds of the present invention on reduction of blood pressure was examined according to the method as mentioned hereinbefore.

Data on 33 compounds can be found in patent publication US4678783A, “Substituted isoquinolinesulfonyl compounds” (Asahi Kasei Kogyo Kabushiki Kaisha, priority 1984, dated 1987).

SMILES strings stand for the structures. pEC50: −log10 of the molar value.

Take `CC1CNCCCN1S(=O)(=O)c1cccc2cnccc12` (stereo not shown) [Compound (2), 1-(5-isoquinolinesulfonyl)-2-methylhomopiperazine]: in experiment [1], the pEC50 was 5.40. On the same count and under the same terms, for `CC1CNCCN(S(=O)(=O)c2cccc3cnccc23)C1` (stereo not shown) [Compound (4), 1-(5-isoquinolinesulfonyl)-6-methylhomopiperazine] the value was 5.80. The same measure, in the same setting: then `CC1NCCCN(S(=O)(=O)c2cccc3cnccc23)C1C` (stereo not shown) [Compound (5), 1-(5-isoquinolinesulfonyl)-2,3-dimethylhomopiperazine], with 5.10. On the same count and under the same terms, for `CC1(C)CN(S(=O)(=O)c2cccc3cnccc23)CCCN1` [Compound (6), 1-(5-isoquinolinesulfonyl)-3,3-dimethylhomopiperazine] the value was 5.00.

Take `CCC1CN(S(=O)(=O)c2cccc3cnccc23)CCCN1` (stereo not shown) [Compound (7), 1-(5-isoquinolinesulfonyl)-3-ethylhomopiperazine]: the pEC50 in experiment [1] is 5.22. Still for that read-out and setting: then `CC(C)CC1CN(S(=O)(=O)c2cccc3cnccc23)CCCN1` (stereo not shown) [Compound (9), 1-(5-isoquinolinesulfonyl)-3-isobutylhomopiperazine], with 5.40; and `O=S(=O)(c1cccc2cnccc12)N1CCCNC(c2ccccc2)C1` (stereo not shown) [Compound (10), 1-(5-isoquinolinesulfonyl)-3-phenylhomopiperazine], with 4.92; and `CCC1CNCCN(S(=O)(=O)c2cccc3cnccc23)C1` (stereo not shown) [Compound (12), 1-(5-isoquinolinesulfonyl)-6-ethylhomopiperazine], with 5.52. The same measure, in the same setting: then `CCCC1CNCCN(S(=O)(=O)c2cccc3cnccc23)C1` (stereo not shown) [Compound (13), 1-(5-isoquinolinesulfonyl)-6-propylhomopiperazine], with 4.96. Still for that read-out and setting: then `CCCCCCC1CNCCN(S(=O)(=O)c2cccc3cnccc23)C1` (stereo not shown) [Compound (16), 1-(5-isoquinolinesulfonyl)-6-hexylhomopiperazine], with 4.92. Regarding `CN1CCCN(S(=O)(=O)c2cccc3cnccc23)CC1` [Compound (19), 1-(5-isoquinolinesulfonyl)-4-methylhomopiperazine], in experiment [1], the pEC50 was 5.10. The same measure, in the same setting: then `CCN1CCCN(S(=O)(=O)c2cccc3cnccc23)CC1` [Compound (20), 1-(5-isoquinolinesulfonyl)-4-ethylhomopiperazine], with 4.96; and `CCCCN1CCCN(S(=O)(=O)c2cccc3cnccc23)CC1` [Compound (22), 1-(5-isoquinolinesulfonyl)-4-butylhomopiperazine], with 4.89. As to `CCCCCCN1CCCN(S(=O)(=O)c2cccc3cnccc23)CC1` [Compound (23), 1-(5-isoquinolinesulfonyl)-4-hexylhomopiperazine], the pEC50 in experiment [1] is 4.92. As for `NCCNS(=O)(=O)c1cccc2c(Cl)nccc12` [Compound (24), N-(2-aminoethyl)-1-chloro-5-isoquinolinesulfonamide], the “ΔPmax (maximally reduced blood pressure)” value in experiment [2] (50 mg/kg) stood at 70 mmHg. In experiment [1], the pEC50 is 5.30. Turning to `NCCCCNS(=O)(=O)c1cccc2c(Cl)nccc12` [Compound (25), N-(4-aminobuthyl)-1-chloro-5-isoquinolinesulfonamide], in experiment [2] (100 mg/kg), the “ΔPmax (maximally reduced blood pressure)” value is on record as 50 mmHg. The pEC50 in experiment [1] is 5.15. As to `CC(CN)NS(=O)(=O)c1cccc2c(Cl)nccc12` (stereo not shown) [Compound (26), N-(2-amino-1-methylethyl)-1-chloro-5-isoquinolinesulfonamide], in experiment [2] (50 mg/kg), the “ΔPmax (maximally reduced blood pressure)” value is given as 53 mmHg. In experiment [1], the pEC50 was 5.40. For `CCCCC(CN)NS(=O)(=O)c1cccc2c(Cl)nccc12` (stereo not shown) [Compound (27), N-(1-aminomethylpentyl)-1-chloro-5-isoquinolinesulfonamide] the same measures were 45 mmHg and 5.40. For `CC(C)C(N)CNS(=O)(=O)c1cccc2c(Cl)nccc12` (stereo not shown) [Compound (28), N-(2-amino-3-methylbutyl)-1-chloro-5-isoquinolinesulfonamide], in that order: 58 mmHg and 5.00. For `CCCCN(CCCC)CCCNS(=O)(=O)c1cccc2c(Cl)nccc12` [Compound (29), N-(3-di-n-butylaminopropyl)-1-chloro-5-isoquinolinesulfonamide], in that order: 43 mmHg and 4.96. As to `CN(CCNS(=O)(=O)c1cccc2c(Cl)nccc12)C1CCCCC1` [Compound (30), N-[2-(N-cyclohexyl-N-methylamino)ethyl]-1-chloro-5-isoquinolinesulfonamide], in experiment [2] (50 mg/kg), the “ΔPmax (maximally reduced blood pressure)” value was determined as 54 mmHg. For the same compound, the pEC50 in experiment [1] is 4.89. `N=C(N)NCCCCNS(=O)(=O)c1cccc2c(Cl)nccc12` [Compound (32), N-(4-guanidinobutyl)-1-chloro-5-isoquinolinesulfonamide]: the “ΔPmax (maximally reduced blood pressure)” value in experiment [2] (100 mg/kg) is reported as 38 mmHg. In addition, the pEC50 in experiment [1] was 5.40. For `CC(CNC(=N)N)NS(=O)(=O)c1cccc2c(Cl)nccc12` (stereo not shown) [Compound (33), N-(2-guanidino-1-methylethyl)-1-chloro-5-isoquinolinesulfonamide] the same measures were 51 mmHg and 5.40.

As to `CCCCC(CNC(=N)N)NS(=O)(=O)c1cccc2c(Cl)nccc12` (stereo not shown) [Compound (34), N-(1-guanidinomethylpentyl)-1-chloro-5-isoquinolinesulfonamide], the “ΔPmax (maximally reduced blood pressure)” value in experiment [2] (100 mg/kg) is on record as 45 mmHg. Also, the pEC50 in experiment [1] was 5.10. For `CC(C)C(CNS(=O)(=O)c1cccc2c(Cl)nccc12)NC(=N)N` (stereo not shown) [Compound (35), N-(2-guanidino-3-methylbutyl)-1-chloro-5-isoquinolinesulfonamide], in that order: 33 mmHg and 5.10. For `CC(CNC(=N)N)CNS(=O)(=O)c1cccc2c(Cl)nccc12` (stereo not shown) [Compound (36), N-(3-guanidino-2-methylpropyl)-1-chloro-5-isoquinolinesulfonamide] the same measures were 48 mmHg and 5.15.

Regarding `CC(CCNS(=O)(=O)c1cccc2c(Cl)nccc12)CNC(=N)N` (stereo not shown) [Compound (37), N-(4-guanidino-3-methylbutyl)-1-chloro-5-isoquinolinesulfonamide], the “ΔPmax (maximally reduced blood pressure)” value in experiment [2] (100 mg/kg) is recorded as 31 mmHg. For the same compound, in experiment [1], the pEC50 is 4.96. Take `CCNCCNS(=O)(=O)c1cccc2c(Cl)nccc12` [Compound (71), N-(2-ethylaminoethyl)-1-chloro-5-isoquinolinesulfonamide]: in experiment [1], the pEC50 is 4.92. Same read-out and setting: then `CCCNCCNS(=O)(=O)c1cccc2c(Cl)nccc12` [Compound (72), N-(2-propylaminoethyl)-1-chloro-5-isoquinolinesulfonamide], with 4.96.

Take `CCCCNCCNS(=O)(=O)c1cccc2c(Cl)nccc12` [Compound (73), N-(2-butylaminoethyl)-1-chloro-5-isoquinolinesulfonamide]: the pEC50 in experiment [1] was 5.10.

`O=S(=O)(c1cccc2c(Cl)nccc12)N1CCNCC1` [Compound (75), 1-(1-chloro-5-isoquinolinesulfonyl)piperazine]: the pEC50 in experiment [1] is 6.00. In the case of `NCCNS(=O)(=O)c1cccc2cnccc12` [compound 1, reference compound], the “ΔPmax (maximally reduced blood pressure)” value in experiment [2] (100 mg/kg) amounted to 31 mmHg.

With `CC1CN(S(=O)(=O)c2cccc3cnccc23)CCN1` (stereo not shown) [compound 3, reference compound], the “ΔPmax (maximally reduced blood pressure)” value in experiment [2] (100 mg/kg) is on record as 10 mmHg.
